Usually IC50 stands for the point on the concentration scale where inhibition reaches its midpoint.

One experiment has as its target KDR (VEGFR2) (Homo sapiens (Human), UniProt P35968). Description: SelectScreen Z'-LYTE kinase assay, Assay 540 for KDR (VEGFR2). Type of experiment: biochemical. To be noted: Z'-LYTE activity assay, 75 μM ATP (Km app); read-out: VEGFR2 Enzyme IC50.
The target in experiment [1] is T1, CSF-1R (FMS) (Homo sapiens (Human), UniProt P07333). In words: SelectScreen Z'-LYTE kinase assay, Assay 336 for CSF-1R (FMS). Type of experiment: biochemical. The conditions noted are these: Z'-LYTE activity assay, 500 μM ATP (Km app); read-out: CSF-1R Enzyme IC50.
T1 sequence (P07333 20-972): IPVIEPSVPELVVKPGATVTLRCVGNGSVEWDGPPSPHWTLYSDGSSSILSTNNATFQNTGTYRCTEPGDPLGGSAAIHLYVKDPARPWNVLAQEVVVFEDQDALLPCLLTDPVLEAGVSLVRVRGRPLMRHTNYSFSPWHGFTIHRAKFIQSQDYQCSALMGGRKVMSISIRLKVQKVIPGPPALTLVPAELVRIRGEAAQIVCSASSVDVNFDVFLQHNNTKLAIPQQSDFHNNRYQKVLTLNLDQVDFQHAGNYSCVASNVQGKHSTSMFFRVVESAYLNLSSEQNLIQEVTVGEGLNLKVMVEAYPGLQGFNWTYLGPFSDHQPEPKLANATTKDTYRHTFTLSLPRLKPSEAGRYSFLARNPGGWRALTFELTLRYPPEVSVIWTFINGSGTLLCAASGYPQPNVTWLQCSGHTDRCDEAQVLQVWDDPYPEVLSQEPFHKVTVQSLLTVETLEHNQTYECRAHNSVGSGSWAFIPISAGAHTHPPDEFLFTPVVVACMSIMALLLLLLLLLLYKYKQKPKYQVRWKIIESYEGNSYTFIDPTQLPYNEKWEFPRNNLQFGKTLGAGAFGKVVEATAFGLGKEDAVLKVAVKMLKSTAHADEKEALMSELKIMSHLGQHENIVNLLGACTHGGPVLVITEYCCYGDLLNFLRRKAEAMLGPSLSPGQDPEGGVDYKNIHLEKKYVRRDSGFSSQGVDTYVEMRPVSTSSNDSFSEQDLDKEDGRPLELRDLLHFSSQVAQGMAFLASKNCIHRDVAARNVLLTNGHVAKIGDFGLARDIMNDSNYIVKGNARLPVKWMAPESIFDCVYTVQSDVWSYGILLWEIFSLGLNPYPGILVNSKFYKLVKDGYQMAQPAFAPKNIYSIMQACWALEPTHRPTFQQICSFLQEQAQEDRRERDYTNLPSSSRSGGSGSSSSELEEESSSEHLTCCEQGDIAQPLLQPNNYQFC
For experiment [2], the system named is CD11b and CD24 positive cells. In words: In vivo efficacy study: flow cytometry of blood leukocytes from mice bearing NZM12 human melanoma xenografts. Further details: species or system NIH-III female mice. The conditions noted are these: dosed daily for 14 days. (In general: A flow cytometer gives signals particle by particle.)
Experiment [3] concerns the target T1, CSF-1R (FMS). To be noted: representative value, substrate Tyr 01, ATP Bin 500 μM; read-out: IC50 (nM) of known inhibitor, CSF-1R (FMS); cited from earlier work.

Counter-ions that a name gives are not always drawn. Like-named read-outs stand apart in the source and are kept apart here.

KDR (VEGFR2), sequence (P35968 20-1356): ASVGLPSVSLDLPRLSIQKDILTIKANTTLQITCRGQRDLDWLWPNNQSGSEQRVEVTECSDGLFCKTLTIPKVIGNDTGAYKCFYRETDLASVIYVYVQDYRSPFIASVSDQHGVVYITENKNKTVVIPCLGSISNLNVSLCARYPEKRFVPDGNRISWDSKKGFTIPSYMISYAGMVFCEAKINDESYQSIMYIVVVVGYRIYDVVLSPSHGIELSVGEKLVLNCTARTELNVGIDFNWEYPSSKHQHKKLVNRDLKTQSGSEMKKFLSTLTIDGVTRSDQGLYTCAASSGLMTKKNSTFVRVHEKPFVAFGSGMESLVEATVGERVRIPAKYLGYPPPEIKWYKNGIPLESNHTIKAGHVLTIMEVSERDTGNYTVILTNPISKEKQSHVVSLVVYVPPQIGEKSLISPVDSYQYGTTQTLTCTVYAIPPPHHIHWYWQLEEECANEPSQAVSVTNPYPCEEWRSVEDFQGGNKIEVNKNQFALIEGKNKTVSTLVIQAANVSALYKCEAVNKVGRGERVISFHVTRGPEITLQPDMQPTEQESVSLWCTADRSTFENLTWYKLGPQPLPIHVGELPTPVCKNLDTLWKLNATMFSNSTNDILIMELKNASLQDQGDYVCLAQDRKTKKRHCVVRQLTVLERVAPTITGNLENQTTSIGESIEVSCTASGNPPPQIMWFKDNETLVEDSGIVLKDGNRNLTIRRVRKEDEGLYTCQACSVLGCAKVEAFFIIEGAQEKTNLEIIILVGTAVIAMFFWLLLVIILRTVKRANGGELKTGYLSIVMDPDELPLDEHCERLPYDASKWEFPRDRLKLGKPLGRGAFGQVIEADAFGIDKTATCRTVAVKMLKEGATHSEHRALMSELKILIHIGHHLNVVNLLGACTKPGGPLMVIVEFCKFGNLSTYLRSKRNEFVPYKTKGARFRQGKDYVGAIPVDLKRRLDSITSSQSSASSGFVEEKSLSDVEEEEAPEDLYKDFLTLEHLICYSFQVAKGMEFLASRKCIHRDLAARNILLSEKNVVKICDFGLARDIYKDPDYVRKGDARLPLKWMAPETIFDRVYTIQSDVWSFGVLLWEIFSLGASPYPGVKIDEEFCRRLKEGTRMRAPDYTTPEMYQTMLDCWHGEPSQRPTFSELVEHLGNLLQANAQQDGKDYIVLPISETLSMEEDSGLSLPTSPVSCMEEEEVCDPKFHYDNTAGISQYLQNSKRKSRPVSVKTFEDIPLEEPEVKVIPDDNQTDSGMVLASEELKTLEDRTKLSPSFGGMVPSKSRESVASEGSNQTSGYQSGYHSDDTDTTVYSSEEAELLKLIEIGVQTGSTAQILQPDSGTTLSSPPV

Turning to `Cc1cc(OCCN2C[C@@H](C)N(C)[C@@H](C)C2)c2oc3cc(Oc4ccc(CCC(=O)NC5CCCC5)nc4)ccc3c(=O)c2c1` [Example 62, N-Cyclopentyl-3-(5-((7-methyl-9-oxo-5-(2-((3S,5R)-3,4,5-trimethylpiperazin-1-yl)ethoxy)-9H-xanthen-3-yl)oxy)pyridin-2-yl)propanamide], the IC50 on KDR (VEGFR2) was above 10 µM; on CSF-1R (FMS) [1] it was below 0.1 µM.
On the same counts, the results for `Cc1cc(OCCCN2CCN(C(C)C)CC2)c2oc3cc(Oc4ccc(CCC(=O)NC5CCCC5)nc4)ccc3c(=O)c2c1` [Example 66, N-Cyclopentyl-3-(5-((5-(3-(4-isopropylpiperazin-1-yl)propoxy)-7-methyl-9-oxo-9H-xanthen-3-yl)oxy)pyridin-2-yl)propanamide] are 1 to 10 µM and below 0.1 µM.
With `FC(F)(F)c1ccc(CNc2ccc(Cc3c[nH]c4ncc(Cl)cc34)cn2)cn1` [PLX3397, Pexidartinib, reference compound], in experiment [2], the “number of cells of myeloid lineage in the treated mice” value is reported as “reduce the number of cells of myeloid lineage”.
In the case of `COc1cc2ncnc(Nc3cccc(Cl)c3)c2cc1OC` [Tyrphostin AG1478], at CSF-1R (FMS) [3], the IC50 was 6480 nM.
`Cc1cc(OCCN(C)C)c2oc3cc(Oc4ccc(CCC(=O)NC5CCCC5)nc4)ccc3c(=O)c2c1` [dimethanesulfonate salt of compound 22, N-cyclopentyl-3-(5-((5-(2-(dimethylamino)ethoxy)-7-methyl-9-oxo-9H-xanthen-3-yl)-oxy)pyridin-2-yl)propanamide]: the “number of cells of myeloid lineage in the treated mice” value in experiment [2] is on record as “reduce the number of cells of myeloid lineage”. Further, in experiment [2] (blood leukocytes, versus PLX3397 and control (FIG. 1)), the “levels of CD11b positive cells” value was “reduced the levels of CD11b and CD24 positive cells to a similar or greater extent compared with treatment with PLX3397”. In addition, the “levels of CD24 positive cells” value in experiment [2] (blood leukocytes, versus PLX3397 and control (FIG. 2)) was “reduced the levels of CD11b and CD24 positive cells to a similar or greater extent compared with treatment with PLX3397”.

These data come from patent US11028064B2, “Tricyclic heterocyclic derivatives and uses thereof” (AUCKLAND UNISERVICES LIMITED, priority 2016, dated 2021).
